Results from patent US20190031618A1, “BENZIMIDAZOLE DERIVATIVES USEFUL AS CB-1 INVERSE AGONISTS” (Janssen Pharmaceutica NV, priority 2015, published 2019).

Legend:
[1] = molecular target: Human CB1R (Cannabinoid receptor 1) (Homo sapiens, UniProt P21554); test: CB-1 in vitro cAMP (HTRF) assay; type: cell-based; conditions: HEK cells, cAMP HTRF, 250 nM forskolin; mean where tested more than once; read-out: CB1 HEK_cAMP EC50
Description: (§1) CB1 and CB2 receptors are Gi-coupled GPCR. Activation of CB1 and CB2 receptors results in a decrease in cAMP production. An inverse agonist of the CB1 or CB2 receptor results in the opposite effect, an increase of cAMP production. The principle of this assay is based on HTRF® technology (Homogeneous Time-Resolved Fluorescence). The method is a competitive immunoassay between native cAMP produced by cells and the cAMP labeled with the fluorophore d2. The tracer binding is quantified by a Mab anti-cAMP labeled with Eu3+TBP-NHS Cryptate (supplied as part of the assay kit). The specific signal (i.e. energy transfer) is inversely proportional to the concentration of cAMP in the standard or sample.
Human CB1R (Cannabinoid receptor 1) was stably transfected in HEK-293 cells (DiscoveRx, cat: 93-0200C1). Human CB2R (Cannabinoid receptor 2) was stably transfected in HEK-293 cells (DiscoveRx, cat: 93-0201C1).
One day prior to experiments media was warmed to 37° C. and the cryo-stored cells were thawed in a 37° C. water bath. The cells were then added to media (10× volume) and the mixture was centrifuged at 1000 RPM for 5 min. The supernate was removed and the cells were re-suspended in media. A sample of the cell suspension was evaluated on a Cedex XS automated cell counter (Innovatis Systems) to determine viable cells/ml. Additional media was added to the cells to achieve a final cell density of 4E5 cells/mL. […] Cells were removed from Row P (location of cAMP standards). […] The cell plates were lidded and stored for 15 minutes in a hood, then transferred to an incubator (37° C., 5% CO2, 95% humidity) overnight.
Test compounds (60 μL, 10 mM) were added to Column 1 and 13 (A1 through N1 and A13 through L13). Test compounds were serially diluted 1/3 by transferring and mixing 20 μl sample with 40 μL DMSO.
DMSO (40 μL) was added to wells of 384 well V bottom polystyrene plate: O2 through O11, M14 through M23, N14 through N23, and O14 through O23. […] The control was serially diluted 1/3 by transferring and mixing 20 μl sample with 40 μL DMSO. This process resulted 11 doses per control, 10 mM to 0.5 μM.
Cells plated the day prior to the assay in clear bottom plates were viewed on an inverse microscope to ensure confluency in the range of 60-75%.
A FLEXDROP (Perkin Elmer) was cleaned with ethanol then water, and primed with Buffer 2. A 384 well V bottom polypropylene plate containing d2 labelled cAMP and a second 384 well V bottom polypropylene plate containing anti-cAMP was prepared (50 μl per well). Media as “dumped” from the cell plate and 30 μL Buffer 1 was added to each well using a Multidrop. The content of the cell plate was again “dumped” and 10 μL Buffer 2 was added to each well using a Flexdrop. […] The cell plate was mixed (Speed 6, Lab-Line Instruments Titer Plate Shaker) and centrifuged (1000 RPMs, 1 min). […] The cell plate was again mixed (speed 6) and centrifuged (1000 RPMs, 1 min). The cell plate was incubated for 30 minutes at room temperature (˜27° C.). The contents of row P were removed and the cAMP standard dilutions were added in duplicate to Row P (P1-12 and P13-24). After incubation, 6 μL d2 labelled cAMP and 6 μL of Anti-cAMP were added to all wells of the cell plate using a BioMek FX (Beckman Coulter). The cell plate was again mixed (speed 6) and centrifuged (1000 RPMs, 1 min) and was incubated for 60 minutes in the dark at room Temp (˜27° C.).
After this final incubation, the cell plate was read in HTRF mode (fluorescence at 665 nm and 620 nm) on an Envision plate Reader (Perkin Elmer). The Envision reader outputs a ratio of channel 1/channel 2 fluorescence×10,000 (Normalized signal (NS)). Amount of cAMP in nM was calculated for each well (based on NS) from a cAMP standard curve located on each plate (at P1-12 and P13-24). EC50 values were determined from a 4-point fit (Hill equation) of a single 11-point compound dosing. Hill slope was fixed at 1.0.

[2] = molecular target: Human CB2R (Cannabinoid receptor 2) (Homo sapiens, UniProt P34972); test: CB-2 in vitro cAMP (HTRF) assay; type: cell-based; conditions: HEK cells, cAMP HTRF, 250 nM forskolin; mean where tested more than once; read-out: CB2 HEK_cAMP EC50
Description: as §1
Human CB1R (Cannabinoid receptor 1) was stably transfected in HEK-293 cells (DiscoveRx, cat: 93-0200C1). Human CB2R (Cannabinoid receptor 2) was stably transfected in HEK-293 cells (DiscoveRx, cat: 93-0201C1). Cell cultures were maintained in media: DMEM (Invitrogen Cat#12430-054) supplemented with 10% HI FBS (Invitrogen Cat#16140-071), 1% L-glutamine (Invitrogen Cat#25030-081), 0.2 mg/ml Hygromycin B (Invitrogen Cat#10687-010), 600 μg/mL G418 (Invitrogen Cat#10131-035), and 1× Penn/Strep (Invitrogen 15140-122). After cell expansion, aliquots were cryo-stored in media containing 5% DMSO (Pierce Cat#20684).
One day prior to experiments media was warmed to 37° C. and the cryo-stored cells were thawed in a 37° C. water bath. The cells were then added to media (10× volume) and the mixture was centrifuged at 1000 RPM for 5 min. The supernate was removed and the cells were re-suspended in media. A sample of the cell suspension was evaluated on a Cedex XS automated cell counter (Innovatis Systems) to determine viable cells/ml. Additional media was added to the cells to achieve a final cell density of 4E5 cells/mL. The cells were then plated into 384 well PDL white solid bottom plates (Greiner, Cat#781945) at 20 μL per well using a Multidrop (Thermo Scientific). Cells were removed from Row P (location of cAMP standards). Two columns of cells were plated into a clear bottom 384 well PDL coated plate (Greiner, Cat#781944) to view confluence the day of the assay. The cell plates were lidded and stored for 15 minutes in a hood, then transferred to an incubator (37° C., 5% CO2, 95% humidity) overnight.
DMSO was added to all wells of 384 well V bottom polystyrene plate (Greiner, Cat#781280) except to columns 1 and 13, rows O and P and wells M13-M23 and N13-N23. Test compounds (60 μL, 10 mM) were added to Column 1 and 13 (A1 through N1 and A13 through L13). Test compounds were serially diluted 1/3 by transferring and mixing 20 μl sample with 40 μL DMSO.
DMSO (40 μL) was added to wells of 384 well V bottom polystyrene plate: O2 through O11, M14 through M23, N14 through N23, and O14 through O23. AM630 (also known as [6-iodo-2-methyl-1-[2-(4-morpholinyl)ethyl]-1H-indol-3-yl](4-methoxyphenyl)-methanone, Cayman Chemical, Cat#10006974) (60 μL, 10 mM) was added to O1; and 1-(2,4-dichlorophenyl)-7-[(4-fluorophenyl)methylene]-4,5,6,7-tetrahydro-N-1-piperidinyl-1H-benzimidazole-3-carboxamide (60 μL, 10 mM) was added to N13. The control was serially diluted 1/3 by transferring and mixing 20 μl sample with 40 μL DMSO. This process resulted 11 doses per control, 10 mM to […].
Cells plated the day prior to the assay in clear bottom plates were viewed on an inverse microscope to ensure confluency in the range of 60-75%. […]

Sequence of Human CB2R (Cannabinoid receptor 2) (P34972 whole entry): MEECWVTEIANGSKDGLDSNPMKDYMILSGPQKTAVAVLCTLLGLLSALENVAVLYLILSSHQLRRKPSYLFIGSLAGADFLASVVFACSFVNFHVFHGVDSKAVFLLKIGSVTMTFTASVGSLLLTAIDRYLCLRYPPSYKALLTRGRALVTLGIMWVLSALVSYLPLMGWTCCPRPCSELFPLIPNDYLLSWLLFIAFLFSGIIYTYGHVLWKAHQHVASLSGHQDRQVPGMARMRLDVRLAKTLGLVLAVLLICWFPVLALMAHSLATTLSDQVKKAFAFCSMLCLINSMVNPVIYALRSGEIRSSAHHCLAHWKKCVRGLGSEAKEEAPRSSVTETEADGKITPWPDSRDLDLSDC
Sequence of Human CB1R (Cannabinoid receptor 1) (P21554 whole entry): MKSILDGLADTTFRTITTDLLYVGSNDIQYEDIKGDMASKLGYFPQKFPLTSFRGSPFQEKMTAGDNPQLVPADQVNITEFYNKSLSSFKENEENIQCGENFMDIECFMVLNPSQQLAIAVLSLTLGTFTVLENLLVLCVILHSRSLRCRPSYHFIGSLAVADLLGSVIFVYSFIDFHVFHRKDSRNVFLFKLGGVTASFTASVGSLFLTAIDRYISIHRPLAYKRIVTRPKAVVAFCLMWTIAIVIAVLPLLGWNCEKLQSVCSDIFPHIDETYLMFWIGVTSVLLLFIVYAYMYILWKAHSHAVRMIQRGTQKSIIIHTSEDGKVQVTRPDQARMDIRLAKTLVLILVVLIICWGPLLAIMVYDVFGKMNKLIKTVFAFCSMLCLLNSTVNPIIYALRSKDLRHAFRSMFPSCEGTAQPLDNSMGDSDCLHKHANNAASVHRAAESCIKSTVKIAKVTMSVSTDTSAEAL

Row | EC50 [1] [nM] | EC50 [2] [nM] | SMILES
1 | 45 | 7900 | NC(=O)COc1ccc(-n2c(C3CC3)nc3ccc(C(c4ccc(Cl)cc4)c4ccc(Cl)cc4)cc32)cc1 [Example 169]
2 | 3740 | > 10000 | NC(=O)c1ccc(S(=O)(=O)N2CCC(n3c(C4CC4)nc4ccc(C(CO)(c5ccc(Cl)cc5)c5ccc(Cl)cc5)cc43)CC2)cc1Cl [Example 212]
3 | 392 | > 10000 | CCCc1nc2ccc(C(c3ccc(Cl)cc3)c3nccs3)cc2n1C1CCN(C(=O)OCC)CC1 (centres unmarked) [Example 416]
4 | 8310 | > 10000 | O=C(O)c1ccc(S(=O)(=O)N2CCC(n3c(C4CC4)nc4ccc(C(CO)(c5ccc(Cl)cc5)c5ccc(Cl)cc5)cc43)CC2)cc1Cl [Example 213]
5 | 3920 | > 10000 | O=C(O)COCC(c1ccc(Cl)cc1)(c1ccc(Cl)cc1)c1ccc2nc(C3CC3)n(C3CCN(S(=O)(=O)C(F)(F)F)CC3)c2c1 [Example 143]
6 | 1430 | > 10000 | O=C(O)c1ccc(C(=O)N2CCC(n3c(C4CC4)nc4ccc(C(c5ccc(Cl)cc5)c5ccc(Cl)cc5)cc43)CC2)cc1 [Example 246]
7 | 16.5 | > 10000 | CCc1nc2ccc(C(c3ccc(Cl)cc3)c3nccs3)cc2n1CC1CCN(S(=O)(=O)C(F)(F)F)CC1 (centres unmarked) [Example 323]
8 | 2.1 | > 10000 | O=S(=O)(N1CCC(n2c(C3CCCO3)nc3ccc(C(c4ccc(Cl)cc4)c4ccc(Cl)cc4)cc32)CC1)C(F)(F)F (centres unmarked) [Example 271]
9 | 91.2 | > 10000 | Cc1ccc(S(=O)(=O)N2CCC(n3c(C4CC4)nc4ccc(C(c5ccc(Cl)cc5)c5ccc(Cl)cc5)cc43)CC2)cc1C(N)=O [Example 168]
10 | > 10000 | > 10000 | COC(=O)c1cccc(N2CCC(Cn3c(C4CC4)nc4ccc(C(c5ccc(Cl)cc5)c5ccc(Cl)cc5)cc43)CC2)c1 [Example 13]
11 | 60 | > 10000 | O=S(=O)(N1CCC(n2c(C3CCC3)nc3ccc(C(c4ccc(Cl)cc4)c4nccs4)cc32)CC1)C(F)(F)F (centres unmarked) [Example 391]
12 | 17.2 | 8600 | CCc1nc2ccc(C(c3ccc(Cl)cc3)c3ccc(Cl)cc3)cc2n1CCc1cccc(Cl)c1 [Example 311]
13 | 9.8 | 2160 | O=C(O)c1cnc(N2CCC(Cn3c(C4CC4)nc4ccc(C(c5ccc(Cl)cc5)c5ccc(Cl)cc5)cc43)CC2)nc1 [Example 4]
14 | 17 | > 10000 | COC(=O)C(c1ccc(Cl)cc1)(c1ccc(Cl)cc1)c1ccc2nc(C3CC3)n(CC3CCN(S(=O)(=O)C(F)(F)F)CC3)c2c1 [Example 14]
15 | > 10000 | > 6600 | FC(F)(F)c1csc(C(c2ccc(Cl)cc2)c2ccc3ncn(Cc4ccc(Cl)cc4)c3c2)n1 (centres unmarked) [Example 462]
16 | 450 | > 42000 | NCCS(=O)(=O)N1CCC(n2c(C3CC3)nc3ccc(C(c4ccc(Cl)cc4)c4ccc(Cl)cc4)cc32)CC1 [Example 46]
17 | 18.4 | > 10000 | CCc1nc2ccc(C(C(=O)O)(c3ccc(Cl)cc3)c3ccc(Cl)cc3)cc2n1C1CCN(S(=O)(=O)C(F)(F)F)CC1 [Example 266]
18 | 255 | 2930 | NC(=O)COc1ccc(Cn2c(C3CC3)nc3ccc(C(c4ccc(Cl)cc4)c4ccc(Cl)cc4)cc32)cc1 [Example 182]

Row | SMILES | EC50 [1] [nM] | EC50 [2] [nM]
19 | Cc1ccc(C(c2ccc(Cl)cc2)c2ccc3nc(C4CC4)n(C4CCN(Cc5cccc(C(=O)O)c5)CC4)c3c2)cc1 (centres unmarked) [Example 100] | 19.4 | 6300
20 | O=C(O)c1ccc(Cl)c(CN2CCC(n3c(C4CC4)nc4ccc(C(c5ccc(Cl)cc5)c5ccc(Cl)cc5)cc43)CC2)c1 [Example 94] | 26.1 | 4760
21 | O=C(O)c1cccc(CN2CCC(n3c(C4CC4)nc4ccc(C(c5ccc(F)cc5)c5ccc(Cl)cc5)cc43)CC2)c1 (centres unmarked) [Example 98] | 16.2 | > 10000
22 | O=C(O)c1cccc(CN2CCC(n3c(C4CC4)nc4ccc(C(c5ccc(F)cc5)c5ccc(F)cc5)cc43)CC2)c1 [Example 97] | 18.7 | > 10000
